Patent US10738028B2, “Spiro three-membered ring, spiro five-membered ring peptide deformylase inhibitor and use thereof in antibacteria and anti-tumor” (priority 2016, dated 2020)
Converted amounts (≈) assume the structure as drawn.

Columns and labels:
Format in all cases: cell-based
[1] = test system: methicillin-sensitive Staphylococcus epidermidis (MSSE); experiment: MIC, two-fold agar dilution (CLSI), clinical isolates
Text: (§1) 1. The invention adopts the two-fold agar dilution method recommended by the operating procedure of antimicrobial susceptibility testing set by American Clinical and Laboratory Standards Institute (CLSI) to determine the Minimum Inhibitory Concentration (MIC) of the test samples against the tested strains.

[2] = test system: Enterococcus faecium (EFM); experiment: as above
Text: as §1

[3] = test system: Escherichia coli (including ESBLs, non-ESBLs); experiment: as above
Text: as §1

[4] = test system: Streptococcus pneoumoniae (SPN); experiment: as above
Text: as §1

[5] = test system: Moraxella catarrhalis (BCA); experiment: as above
Text: as §1

[6] = test system: methicillin-sensitive Staphylococcus aureus (MSSA); experiment: as above
Text: as §1

[7] = test system: Enterococcus faecalis (EFA); experiment: as above
Text: as §1

[8] = test system: methicillin-resistant Staphylococcus epidermidis (MRSE); experiment: as above
Text: as §1

[9] = test system: methicillin-resistant Staphylococcus aureus (MRSA); experiment: as above
Text: as §1

[10] = test system: HCT-116 colorectal cancer cell line; experiment: CCK-8 proliferation inhibition; conditions: Homo sapiens, HCT-116, 72 h, concentration of 30 μM; 72 hours; CCK-8; read-out: HCT116 inhibition rate/%
Method in brief: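 2000 cells/well, McCoy's 5A + 10% newborn bovine serum; overnight attach, 37° C./5% CO2. Cpd from DMSO stock diluted in medium, 72 h. Readout: CCK-8 (1:10). Ctrl 1‰ DMSO.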

For `O=CN(O)C[C@@H](CC1CCCC1)C(=O)N1CC2(CC2)C[C@H]1C(=O)Nc1cnccn1` [Example 26], the MIC (anti-bacterial activity) ([1]; strain MSSE 15-3) was 0.125 µg/mL (≈ 0.301 µM), the MIC (anti-bacterial activity) ([1]; strain MSSE 15-4) was 0.5 µg/mL (≈ 1.2 µM) and the MIC (anti-bacterial activity) ([1]; strain MSSE 15-5) was 0.5 µg/mL (≈ 1.2 µM). The MIC (anti-bacterial activity) ([1]; strain MSSE 15-6) was 0.5 µg/mL (≈ 1.2 µM), the MIC (anti-bacterial activity) ([2]; strain EFM 15-1) was 0.5 µg/mL (≈ 1.2 µM) and the MIC (anti-bacterial activity) ([2]; strain EFM 15-2) was 0.5 µg/mL (≈ 1.2 µM). The MIC (anti-bacterial activity) ([2]; strain EFM 15-3) was 0.25 µg/mL (≈ 0.602 µM), the MIC (anti-bacterial activity) ([2]; strain EFM 15-4) was 0.5 µg/mL (≈ 1.2 µM) and the MIC (anti-bacterial activity) ([2]; strain EFM 15-5) was 0.25 µg/mL (≈ 0.602 µM). For the same molecule, the MIC (anti-bacterial activity) ([2]; strain EFM 15-6) was 0.5 µg/mL (≈ 1.2 µM), the MIC (anti-bacterial activity) ([3]; strain ECO+ 15-1) was 32 µg/mL (≈ 77 µM) and the MIC (anti-bacterial activity) ([3]; strain ECO+ 15-2) was 32 µg/mL (≈ 77 µM). For the same molecule, the MIC (anti-bacterial activity) ([3]; strain ECO+ 15-3) was 32 µg/mL (≈ 77 µM), the MIC (anti-bacterial activity) ([3]; strain ECO+ 15-4) was 32 µg/mL (≈ 77 µM) and the MIC (anti-bacterial activity) ([3]; strain ECO− 15-1) was 32 µg/mL (≈ 77 µM). The MIC (anti-bacterial activity) ([3]; strain ECO− 15-2) was 32 µg/mL (≈ 77 µM), the MIC (anti-bacterial activity) ([3]; strain ECO− 15-3) was 32 µg/mL (≈ 77 µM) and the MIC (anti-bacterial activity) ([3]; strain ECO− 15-4) was 32 µg/mL (≈ 77 µM). It also gave an MIC (anti-bacterial activity) ([4]; strain SPN 16-2) of 0.25 µg/mL (≈ 0.602 µM), an MIC (anti-bacterial activity) ([4]; strain SPN 16-4) of 2 µg/mL (≈ 4.81 µM) and an MIC (anti-bacterial activity) ([5]; strain BCA 14-1) of 0.5 µg/mL (≈ 1.2 µM). For the same molecule, the MIC (anti-bacterial activity) ([5]; strain BCA 14-4) was 0.5 µg/mL (≈ 1.2 µM), the MIC (anti-bacterial activity) ([5]; strain BCA 14-5) was 0.25 µg/mL (≈ 0.602 µM) and the MIC (anti-bacterial activity) ([5]; strain BCA 14-6) was 0.5 µg/mL (≈ 1.2 µM). For the same molecule, the MIC (anti-bacterial activity) ([5]; strain BCA 14-7) was 0.25 µg/mL (≈ 0.602 µM), the MIC (anti-bacterial activity) ([5]; strain BCA 14-8) was 0.5 µg/mL (≈ 1.2 µM) and the MIC (anti-bacterial activity) ([5]; strain BCA 14-10) was 0.25 µg/mL (≈ 0.602 µM). It also gave an MIC (anti-bacterial activity) ([6]; strain MSSA 15-3) of 0.25 µg/mL (≈ 0.602 µM), an MIC (anti-bacterial activity) ([6]; strain MSSA 15-4) of 0.25 µg/mL (≈ 0.602 µM) and an MIC (anti-bacterial activity) ([6]; strain MSSA 15-5) of 0.25 µg/mL (≈ 0.602 µM). The MIC (anti-bacterial activity) ([6]; strain MSSA 15-6) was 0.25 µg/mL (≈ 0.602 µM), the MIC (anti-bacterial activity) ([7]; strain EFA 15-1) was 2 µg/mL (≈ 4.81 µM) and the MIC (anti-bacterial activity) ([7]; strain EFA 15-2) was 2 µg/mL (≈ 4.81 µM). The MIC (anti-bacterial activity) ([7]; strain EFA 15-3) was 0.5 µg/mL (≈ 1.2 µM), the MIC (anti-bacterial activity) ([7]; strain EFA 15-4) was 2 µg/mL (≈ 4.81 µM) and the MIC (anti-bacterial activity) ([7]; strain EFA 15-5) was 2 µg/mL (≈ 4.81 µM). For the same molecule, the MIC (anti-bacterial activity) ([7]; strain EFA 15-6) was 2 µg/mL (≈ 4.81 µM), the MIC (anti-bacterial activity) ([7]; strain EFA 15-9) was 2 µg/mL (≈ 4.81 µM) and the MIC (anti-bacterial activity) ([8]; strain MRSE 15-1) was 0.125 µg/mL (≈ 0.301 µM). For the same molecule, the MIC (anti-bacterial activity) ([8]; strain MRSE 15-2) was 0.5 µg/mL (≈ 1.2 µM), the MIC (anti-bacterial activity) ([8]; strain MRSE 15-3) was 0.5 µg/mL (≈ 1.2 µM) and the MIC (anti-bacterial activity) ([8]; strain MRSE 15-7) was 0.5 µg/mL (≈ 1.2 µM). The MIC (anti-bacterial activity) ([9]; strain MRSA 15-1) was 0.25 µg/mL (≈ 0.602 µM), the MIC (anti-bacterial activity) ([9]; strain MRSA 15-2) was 0.25 µg/mL (≈ 0.602 µM) and the MIC (anti-bacterial activity) ([9]; strain MRSA 15-3) was 0.25 µg/mL (≈ 0.602 µM). For the same molecule, the MIC (anti-bacterial activity) ([9]; strain MRSA 15-4) was 0.25 µg/mL (≈ 0.602 µM) and the inhibition at 30 µM [10] was 18%.

`O=CN(O)C[C@@H](CC1CCCC1)C(=O)N1CC2(CC2)C[C@H]1C(=O)Nc1ccncn1` [Example 27, (S)-5-((R)-3-cyclopentyl-2-((N-hydroxyformamido)methyl)propionyl)-N-(pyrimidin-4-yl)-5-spiro[2.4]heptane-6-carboxamide] gave an MIC (anti-bacterial activity) ([1]; strain MSSE 15-3) of 0.125 µg/mL (≈ 0.301 µM), an MIC (anti-bacterial activity) ([1]; strain MSSE 15-4) of 0.125 µg/mL (≈ 0.301 µM) and an MIC (anti-bacterial activity) ([1]; strain MSSE 15-5) of 0.125 µg/mL (≈ 0.301 µM). For the same molecule, the MIC (anti-bacterial activity) ([1]; strain MSSE 15-6) was 0.125 µg/mL (≈ 0.301 µM), the MIC (anti-bacterial activity) ([2]; strain EFM 15-1) was 0.25 µg/mL (≈ 0.602 µM) and the MIC (anti-bacterial activity) ([2]; strain EFM 15-2) was 1 µg/mL (≈ 2.41 µM). The MIC (anti-bacterial activity) ([2]; strain EFM 15-3) was 0.25 µg/mL (≈ 0.602 µM), the MIC (anti-bacterial activity) ([2]; strain EFM 15-4) was 0.5 µg/mL (≈ 1.2 µM) and the MIC (anti-bacterial activity) ([2]; strain EFM 15-5) was 0.25 µg/mL (≈ 0.602 µM). The MIC (anti-bacterial activity) ([2]; strain EFM 15-6) was 0.5 µg/mL (≈ 1.2 µM), the MIC (anti-bacterial activity) ([3]; strain ECO+ 15-1) was 16 µg/mL (≈ 38.5 µM) and the MIC (anti-bacterial activity) ([3]; strain ECO+ 15-2) was 32 µg/mL (≈ 77 µM). The MIC (anti-bacterial activity) ([3]; strain ECO+ 15-3) was 32 µg/mL (≈ 77 µM), the MIC (anti-bacterial activity) ([3]; strain ECO+ 15-4) was 32 µg/mL (≈ 77 µM) and the MIC (anti-bacterial activity) ([3]; strain ECO− 15-1) was 32 µg/mL (≈ 77 µM). The MIC (anti-bacterial activity) ([3]; strain ECO− 15-2) was 32 µg/mL (≈ 77 µM), the MIC (anti-bacterial activity) ([3]; strain ECO− 15-3) was 32 µg/mL (≈ 77 µM) and the MIC (anti-bacterial activity) ([3]; strain ECO− 15-4) was 32 µg/mL (≈ 77 µM). For the same molecule, the MIC (anti-bacterial activity) ([4]; strain SPN 16-2) was 0.25 µg/mL (≈ 0.602 µM), the MIC (anti-bacterial activity) ([4]; strain SPN 16-4) was 2 µg/mL (≈ 4.81 µM) and the Anti-bacterial activity (MIC), strain BCA 14-10 ([5]; clinical isolate BCA 14-10) was 0.5 µg/mL. It also gave an MIC (anti-bacterial activity) ([5]; strain BCA 14-1) of 2 µg/mL (≈ 4.81 µM), an MIC (anti-bacterial activity) ([5]; strain BCA 14-4) of 2 µg/mL (≈ 4.81 µM) and an MIC (anti-bacterial activity) ([5]; strain BCA 14-5) of 0.25 µg/mL (≈ 0.602 µM). It also gave an MIC (anti-bacterial activity) ([5]; strain BCA 14-6) of 0.125 µg/mL (≈ 0.301 µM), an MIC (anti-bacterial activity) ([5]; strain BCA 14-7) of 0.25 µg/mL (≈ 0.602 µM) and an MIC (anti-bacterial activity) ([5]; strain BCA 14-8) of 0.5 µg/mL (≈ 1.2 µM). The MIC (anti-bacterial activity) ([6]; strain MSSA 15-3) was 0.125 µg/mL (≈ 0.301 µM), the MIC (anti-bacterial activity) ([6]; strain MSSA 15-4) was 0.125 µg/mL (≈ 0.301 µM) and the MIC (anti-bacterial activity) ([6]; strain MSSA 15-5) was 0.125 µg/mL (≈ 0.301 µM). It also gave an MIC (anti-bacterial activity) ([6]; strain MSSA 15-6) of 0.125 µg/mL (≈ 0.301 µM), an MIC (anti-bacterial activity) ([7]; strain EFA 15-1) of 2 µg/mL (≈ 4.81 µM) and an MIC (anti-bacterial activity) ([7]; strain EFA 15-2) of 2 µg/mL (≈ 4.81 µM). The MIC (anti-bacterial activity) ([7]; strain EFA 15-3) was 2 µg/mL (≈ 4.81 µM), the MIC (anti-bacterial activity) ([7]; strain EFA 15-4) was 2 µg/mL (≈ 4.81 µM) and the MIC (anti-bacterial activity) ([7]; strain EFA 15-5) was 2 µg/mL (≈ 4.81 µM). For the same molecule, the MIC (anti-bacterial activity) ([7]; strain EFA 15-6) was 2 µg/mL (≈ 4.81 µM), the MIC (anti-bacterial activity) ([7]; strain EFA 15-9) was 2 µg/mL (≈ 4.81 µM) and the MIC (anti-bacterial activity) ([8]; strain MRSE 15-1) was 0.06 µg/mL (≈ 0.144 µM). For the same molecule, the MIC (anti-bacterial activity) ([8]; strain MRSE 15-2) was 0.125 µg/mL (≈ 0.301 µM), the MIC (anti-bacterial activity) ([8]; strain MRSE 15-3) was 0.125 µg/mL (≈ 0.301 µM) and the MIC (anti-bacterial activity) ([8]; strain MRSE 15-7) was 0.125 µg/mL (≈ 0.301 µM). The MIC (anti-bacterial activity) ([9]; strain MRSA 15-1) was 0.125 µg/mL (≈ 0.301 µM), the MIC (anti-bacterial activity) ([9]; strain MRSA 15-2) was 0.125 µg/mL (≈ 0.301 µM) and the MIC (anti-bacterial activity) ([9]; strain MRSA 15-3) was 0.125 µg/mL (≈ 0.301 µM). For the same molecule, the MIC (anti-bacterial activity) ([9]; strain MRSA 15-4) was 0.125 µg/mL (≈ 0.301 µM) and the inhibition at 30 µM [10] was 17%.
